Source: patent publication US9211310B2, “Use of a Chinese medicine composition in preparing medicaments for treating secondary prevention of myocardial infarction” (TASLY PHARMACEUTICAL GROUP CO., LTD, priority 2010, dated 2015)

System: patients after acute myocardial infarction
Test: TCM symptom score, total and single (chest pain, chest tightness, short breath, fatigue, palpitation, spontaneous perspiration, pale complexion), same clinical trial
Assay type: in vivo, human
Conditions: for chest pain score 0, number of patients / chest pain score 0, percent of patients / chest pain score 3, number of patients / chest pain score 3, percent of patients / chest pain score 6, number of patients / chest pain score 6, percent of patients / chest pain score 9, number of patients / chest pain score 9, percent of patients / chest tightness score 0, number of patients / chest tightness score 0, percent of patients / chest tightness score 3, number of patients / chest tightness score 3, percent of patients / chest tightness score 6, number of patients / chest tightness score 6, percent of patients / chest tightness score 9, number of patients / chest tightness score 9, percent of patients: 1 month after treatment
Text: 3508 patients who were in accordance with the diagnostic standards of AMI for 28 days to 2 years and differentiated as Qi deficiency and blood stagnation syndrome by TCM were studied. 0.5 g Chinese medicine composition prepared by the method of EXAMPLE 1 (Coded as QSYQ) was administrated half an hour after meal, 3 times per day.
They included the overall survival time, angina pectoris score, TCM symptom score and life quality score, where angina pectoris score, TCM symptom score and life quality score were evaluated at randomization, in 1st, 3rd, 6th, 9th, 12th month after treatment and 18th month after follow-up.
The analysis method referred to the angina pectoris score.

[1] = 1 month after treatment-baseline, FAS
[2] = 1 month after treatment-baseline, PP
[3] = 3 months after treatment-baseline, FAS
[4] = 3 months after treatment-baseline, PP

SMILES: CC(=O)Oc1ccccc1C(=O)O [Control group, aspirine]
- change of chest pain score 0, number of patients [1]: 1344
- change of chest pain score 0, percent of patients [1]: (78.64%)
- change of chest pain score 3, number of patients [1]: 226
- change of chest pain score 3, percent of patients [1]: (13.22%)
- change of chest pain score 6, number of patients [1]: 60
- change of chest pain score 6, percent of patients [1]: (3.51%)
- change of chest pain score 9, number of patients [1]: 4
- change of chest pain score 9, percent of patients [1]: (0.23%)
- change of chest pain score −3, number of patients [1]: 59
- change of chest pain score −3, percent of patients [1]: (3.45%)
- change of chest pain score −6, number of patients [1]: 16
- change of chest pain score −6, percent of patients [1]: (0.94%)
- change of chest pain score −9, number of patients [1]: 0
- change of chest pain score −9, percent of patients [1]: (0.00%)
- change of chest tightness score 0, number of patients [1]: 1302
- change of chest tightness score 0, percent of patients [1]: (76.18%)
- change of chest tightness score 3, number of patients [1]: 298
- change of chest tightness score 3, percent of patients [1]: (17.44%)
- change of chest tightness score 6, number of patients [1]: 21
- change of chest tightness score 6, percent of patients [1]: (1.23%)
- change of chest tightness score 9, number of patients [1]: 5
- change of chest tightness score 9, percent of patients [1]: (0.29%)
- change of chest tightness score −3, number of patients [1]: 76
- change of chest tightness score −3, percent of patients [1]: (4.45%)
- change of chest tightness score −6, number of patients [1]: 7
- change of chest tightness score −6, percent of patients [1]: (0.41%)
- change of chest pain score 0, number of patients [2]: 1146
- change of chest pain score 0, percent of patients [2]: (78.49%)
- change of chest pain score 3, number of patients [2]: 197
- change of chest pain score 3, percent of patients [2]: (13.49%)
- change of chest pain score 6, number of patients [2]: 52
- change of chest pain score 6, percent of patients [2]: (3.56%)
- change of chest pain score 9, number of patients [2]: 3
- change of chest pain score 9, percent of patients [2]: (0.21%)
- change of chest pain score −3, number of patients [2]: 50
- change of chest pain score −3, percent of patients [2]: (3.42%)
- change of chest pain score −6, number of patients [2]: 12
- change of chest pain score −6, percent of patients [2]: (0.82%)
- change of chest pain score −9, number of patients [2]: 0
- change of chest pain score −9, percent of patients [2]: (0.00%)
- change of chest tightness score 0, number of patients [2]: 1110
- change of chest tightness score 0, percent of patients [2]: (76.03%)
- change of chest tightness score 3, number of patients [2]: 259
- change of chest tightness score 3, percent of patients [2]: (17.74%)
- change of chest tightness score 6, number of patients [2]: 19
- change of chest tightness score 6, percent of patients [2]: (1.30%)
- change of chest tightness score 9, number of patients [2]: 4
- change of chest tightness score 9, percent of patients [2]: (0.27%)
- change of chest tightness score −3, number of patients [2]: 62
- change of chest tightness score −3, percent of patients [2]: (4.25%)
- change of chest tightness score −6, number of patients [2]: 6
- change of chest tightness score −6, percent of patients [2]: (0.41%)
- chest pain score 0, number of patients (FAS): 608
- chest pain score 0, percent of patients (FAS): (35.41%)
- chest pain score 3, number of patients (FAS): 635
- chest pain score 3, percent of patients (FAS): (36.98%)
- chest pain score 6, number of patients (FAS): 461
- chest pain score 6, percent of patients (FAS): (26.85%)
- chest pain score 9, number of patients (FAS): 13
- chest pain score 9, percent of patients (FAS): (0.76%)
- chest tightness score 0, number of patients (FAS): 608
- chest tightness score 0, percent of patients (FAS): (35.41%)
- chest tightness score 3, number of patients (FAS): 635
- chest tightness score 3, percent of patients (FAS): (36.98%)
- chest tightness score 6, number of patients (FAS): 461
- chest tightness score 6, percent of patients (FAS): (26.85%)
- chest tightness score 9, number of patients (FAS): 13
- chest tightness score 9, percent of patients (FAS): (0.76%)
- chest pain score 0, number of patients (PP): 515
- chest pain score 0, percent of patients (PP): (35.13%)
- chest pain score 3, number of patients (PP): 537
- chest pain score 3, percent of patients (PP): (36.63%)
- chest pain score 6, number of patients (PP): 406
- chest pain score 6, percent of patients (PP): (27.69%)
- chest pain score 9, number of patients (PP): 8
- chest pain score 9, percent of patients (PP): (0.55%)
- chest tightness score 0, number of patients (PP): 515
- chest tightness score 0, percent of patients (PP): (35.13%)
- chest tightness score 3, number of patients (PP): 537
- chest tightness score 3, percent of patients (PP): (36.63%)
- chest tightness score 6, number of patients (PP): 406
- chest tightness score 6, percent of patients (PP): (27.69%)
- chest tightness score 9, number of patients (PP): 8
- chest tightness score 9, percent of patients (PP): (0.55%)
- change of chest pain score 0, number of patients [3]: 1203
- change of chest pain score 0, percent of patients [3]: (70.39%)
- change of chest pain score 3, number of patients [3]: 325
- change of chest pain score 3, percent of patients [3]: (19.02%)
- change of chest pain score 6, number of patients [3]: 76
- change of chest pain score 6, percent of patients [3]: (4.45%)
- change of chest pain score 9, number of patients [3]: 6
- change of chest pain score 9, percent of patients [3]: (0.35%)
- change of chest pain score −3, number of patients [3]: 79
- change of chest pain score −3, percent of patients [3]: (4.62%)
- change of chest pain score −6, number of patients [3]: 20
- change of chest pain score −6, percent of patients [3]: (1.17%)
- change of chest pain score −9, number of patients [3]: 0
- change of chest pain score −9, percent of patients [3]: (0.00%)
- change of chest tightness score 0, number of patients [3]: 1190
- change of chest tightness score 0, percent of patients [3]: (69.63%)
- change of chest tightness score 3, number of patients [3]: 383
- change of chest tightness score 3, percent of patients [3]: (22.41%)
- change of chest tightness score 6, number of patients [3]: 37
- change of chest tightness score 6, percent of patients [3]: (2.17%)
- change of chest tightness score 9, number of patients [3]: 5
- change of chest tightness score 9, percent of patients [3]: (0.29%)
- change of chest tightness score −3, number of patients [3]: 85
- change of chest tightness score −3, percent of patients [3]: (4.97%)
- change of chest tightness score −6, number of patients [3]: 8
- change of chest tightness score −6, percent of patients [3]: (0.47%)
- change of chest tightness score −9, number of patients [3]: 1
- change of chest tightness score −9, percent of patients [3]: (0.06%)
- change of chest pain score 0, number of patients [4]: 1019
- change of chest pain score 0, percent of patients [4]: (70.62%)
- change of chest pain score 3, number of patients [4]: 279
- change of chest pain score 3, percent of patients [4]: (19.33%)
- change of chest pain score 6, number of patients [4]: 63
- change of chest pain score 6, percent of patients [4]: (4.37%)
- change of chest pain score 9, number of patients [4]: 4
- change of chest pain score 9, percent of patients [4]: (0.28%)
- change of chest pain score −3, number of patients [4]: 64
- change of chest pain score −3, percent of patients [4]: (4.44%)
- change of chest pain score −6, number of patients [4]: 14
